Results on ten molecules are retold here after US20150344444A1, “BET-PROTEIN-INHIBITING DIHYDROXYQUINOXALINONES” (BAYER PHARMA AKTIENGESELLSCHAFT, priority 2012, published 2015).

Broadly, the IC50 is the concentration that inhibits the measured activity by half. Read a high IC50 as weaker potency.

Experiment [1] deals with T1, BRD4 Bromo Domain 2 [BRD4(2)] (Homo sapiens, UniProt O60885).
T1 construct: N-terminally His6-tagged BRD4(2) (amino acids 357-445); made in house; host or cells: E. coli
Put plainly: BRD4(2)/acetylated peptide H4 binding assay (TR-FRET). The conditions noted are these: inhibition of interaction between His6-tagged BRD4(2) (amino acids 357-445) and acetylated histone H4 peptide. From the text:
Protein-Protein Interaction Assay: BRD4/Acetylated Peptide H4 Binding Assay
2. Assay Description for BRD4 Bromo Domain 2 [BRD4(2)]
To assess the BRD4(2) binding strength of the substances described in this application, the ability thereof to inhibit the interaction between BRD4(2) and acetylated histone H4 in a dose-dependent manner was quantified.
For this purpose, a time-resolved fluorescence resonance energy transfer (TR-FRET) assay was used, which measures the binding between N-terminally His6-tagged BRD4(2) (amino acids 357-445) and a synthetic acetylated histone H4 (Ac-H4) peptide with sequence SGRGK(Ac)GGK(Ac)GLGK(Ac)GGAK(Ac)RHRKVLRDNGSGSK-biotin. The recombinant BRD4(2) protein produced in house according to Filippakopoulos et al., Cell, 2012, 149:214-231 was expressed in E. coli and purified by means of (Ni-NTA) affinity and (Sephadex G-75) size exclusion chromatography. The Ac-H4 peptide can be purchased, for example, from Biosyntan (Berlin, Germany).
In the assay, typically 11 different concentrations of each substance (0.1 nM, 0.33 nM, 1.1 nM, 3.8 nM, 13 nM, 44 nM, 0.15 μM, 0.51 μM, 1.7 μM, 5.9 μM and 20 μM) were analysed as duplicates on the same microtitre plate. For this purpose, 100-fold concentrated solutions in DMSO were prepared by serial dilutions (1:3.4) of a 2 mM stock solution into a clear, 384-well microtitre plate (Greiner Bio-One, Frickenhausen, Germany). From this, 50 nl were transferred into a black test plate (Greiner Bio-One, Frickenhausen, Germany). The test was started by the addition of 2 μl of a 2.5-fold concentrated BRD4(2) solution (final concentration typically 100 nM in the 5 μl of reaction volume) in aqueous assay buffer [50 mM HEPES pH 7.5, 50 mM sodium chloride (NaCl); 50 mM potassium fluoride (KF); 0.25 mM CHAPS and 0.05% serum albumin (BSA)] to the substances in the test plate. This was followed by a 10-minute incubation step at 22° C. for the pre-equilibration of putative complexes between BRD4(2) and the substances.
The mixture was then incubated in the dark at 22° C. for one hour and then at 4° C. for at least 3 hours and for no longer than overnight. The formation of BRD4(2)/Ac-H4 complexes was determined by the measurement of the resonance energy transfer from the streptavidin-Eu chelate to the anti-6His-XL665 antibody present in the reaction. For this purpose, the fluorescence emission was measured at 620 nm and 665 nm after excitation at 330-350 nm in a TR-FRET measuring instrument, for example a Rubystar or Pherastar (both from BMG Lab Technologies, Offenburg, Germany) or a Viewlux (Perkin-Elmer). The ratio of the emissions at 665 nm and at 622 nm was taken as an indicator of the amount of BRD4(2)/Ac-H4 complexes formed.
The data (ratios) obtained were normalized, with 0% inhibition corresponding to the mean from the measurements for a set of controls (typically 32 data points) in which all the reagents were present. In these, in place of test substances, 50 nl of DMSO (100%) were used Inhibition of 100% corresponded to the mean from the measurements for a set of controls (typically 32 data points) in which all the reagents except BRD4(2) were present. The IC50 was determined by regression analysis based on a 4-parameter equation (minimum, maximum, IC50, Hill; Y=max+(min−max)/(1+(X/IC50)Hill)).
For orientation: In TR-FRET formats the signal depends on donor and acceptor labels being close together.

The subject of a further experiment is MOLP-8 cells. Put plainly: MOLP-8 cell proliferation assay (alamarBlue). The experiment is classed as cell-based. The conditions noted are these: inhibition of cell proliferation, 120 hours, human multiple myeloma cell line. The procedure, abridged:
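MOLP-8 myeloma cells in RPMI1640/20% FCS were treated with compound from 1E-5 to 1E-8 M for 120 h at 37 °C. Proliferation was measured by alamarBlue fluorescence (ex 530, em 590 nm), and the reading taken before dosing was subtracted. IC50 is relative to buffer-treated cells.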
(The colour change of resazurin is a common sign of viable cells or microbes.)

For the molecule `COc1cc(C(=O)NC2CCC(N3CCN(CC4CC4)CC3)CC2)ccc1Nc1ccc2c(c1)N(C1CCOCC1)[C@H](C)C(=O)N2C` (stereo partly drawn) [Example 37, N-{4-[4-(cyclopropylmethyl)piperazin-1-yl]cyclohexyl}-4-{[(3R)-1,3-dimethyl-2-oxo-4-(tetrahydro-2H-pyran-4-yl)-1,2,3,4-tetrahydroquinoxalin-6-yl]amino}-3-methoxybenzamide], the IC50 was determined as 410 nM in experiment [1] and 479 nM with MOLP-8 cells.

Take `COc1cc(C(=O)N2CCN(C)CC2)ccc1Nc1ccc2c(c1)N(C1CCOCC1)[C@H](C)C(=O)N2C` [Example 38, (3R)-6-({2-methoxy-4-[(4-methylpiperazin-1-yl)carbonyl]phenyl}amino)-1,3-dimethyl-4-(tetrahydro-2H-pyran-4-yl)-3,4-dihydroquinoxalin-2(1H)-one]: the values for the IC50 (in experiment [1]; with MOLP-8 cells) were 382 nM and 758 nM, respectively.

On to `COc1ccc(CN2c3cc(Nc4ccc(S(=O)(=O)N(C)C)cc4)ccc3N(C)C(=O)[C@H]2C)cc1` [Example 41, 4-{[(3R)-4-(4-methoxybenzyl)-1,3-dimethyl-2-oxo-1,2,3,4-tetrahydroquinoxalin-6-yl]amino}-N,N-dimethylbenzenesulphonamide], for which the IC50 in experiment [1] was 48 nM; in the experiment on MOLP-8 cells, 77 nM.

In the case of `COc1ccc(CN2c3cc(Nc4ccc(S(=O)(=O)N5CCOCC5)cc4)ccc3N(C)C(=O)[C@H]2C)cc1` [Example 42, (3R)-4-(4-methoxybenzyl)-1,3-dimethyl-6-{[4-(morpholin-4-ylsulphonyl)phenyl]amino}-3,4-dihydroquinoxalin-2(1H)-one], the half-maximal inhibitory concentration (IC50) in experiment [1] was 68 nM; in the experiment on MOLP-8 cells, 61 nM.

Turning to `COc1ccc(CN2c3cc(Nc4ccc(S(=O)(=O)N5CCN(C)CC5)cc4)ccc3N(C)C(=O)[C@H]2C)cc1` [Example 43, (3R)-4-(4-methoxybenzyl)-1,3-dimethyl-6-({4-[(4-methylpiperazin-1-yl)sulphonyl]phenyl}amino)-3,4-dihydroquinoxalin-2(1H)-one], the IC50 in experiment [1] is 54 nM; in the experiment with MOLP-8 cells, 35 nM.

As to `COc1ccc(CN2c3cc(Nc4ccc(S(=O)(=O)N5CCN(C(C)C)CC5)cc4)ccc3N(C)C(=O)[C@H]2C)cc1` [Example 44, (3R)-4-(4-methoxybenzyl)-1,3-dimethyl-6-[(4-{[4-(propan-2-yl)piperazin-1-yl]sulphonyl}phenyl)amino]-3,4-dihydroquinoxalin-2(1H)-one], the IC50 in experiment [1] turned out to be 73 nM; with MOLP-8 cells it was 101 nM.

Regarding `C[C@@H]1C(=O)N(C)c2ccc(Nc3ccc(S(=O)(=O)N(C)C)cc3)cc2N1C1CCCCCC1` [Example 45, 4-{[(3R)-4-cycloheptyl-1,3-dimethyl-2-oxo-1,2,3,4-tetrahydroquinoxalin-6-yl]amino}-N,N-dimethylbenzenesulphonamide], the concentration for half-maximal inhibition (IC50) in experiment [1] is 83 nM; in the experiment with MOLP-8 cells, 1100 nM.

As for `C[C@@H]1C(=O)N(C)c2ccc(Nc3ccc(S(=O)(=O)N(C)C)cc3)cc2N1C1CCOCC1` [Example 46, 4-{[(3R)-1,3-dimethyl-2-oxo-4-(tetrahydro-2H-pyran-4-yl)-1,2,3,4-tetrahydroquinoxalin-6-yl]amino}-N,N-dimethylbenzenesulphonamide], the IC50 stood at 148 nM in experiment [1] and 365 nM in the experiment with MOLP-8 cells.

For the molecule `C[C@@H]1C(=O)N(C)c2ccc(Nc3ccc(S(=O)(=O)N4CCOCC4)cc3)cc2N1C1CCOCC1` [Example 47, (3R)-1,3-dimethyl-6-{[4-(morpholin-4-ylsulphonyl)phenyl]amino}-4-(tetrahydro-2H-pyran-4-yl)-3,4-dihydroquinoxalin-2(1H)-one], the IC50 in experiment [1] amounted to 134 nM; with MOLP-8 cells, 496 nM.

Consider `C[C@@H]1C(=O)N(C)c2ccc(Nc3ccc(S(=O)(=O)N4CCN(C)CC4)cc3)cc2N1C1CCOCC1` [Example 48, (3R)-1,3-dimethyl-6-({4-[(4-methylpiperazin-1-yl)sulphonyl]phenyl}amino)-4-(tetrahydro-2H-pyran-4-yl)-3,4-dihydroquinoxalin-2(1H)-one], for which the results for the half-inhibitory concentration (IC50) (in experiment [1]; with MOLP-8 cells) were 112 nM and 803 nM, respectively.
